Experimental data published in the CheMixHub viscosity set.
Several values for one entry are separate records, joined by “and”; a condition that tells them apart may be missing. Equal values may be shown once.

Test: xn = mol fraction of the nth substance listed
Details: 100 kPa

CN1CCCN(C)C1=O + O
viscosity
Details | 303.15 K | 308.15 K | 313.15 K | 318.15 K | 323.15 K
x1 = 0.007139 | 0.942 mPa·s | 0.848 mPa·s | 0.769 mPa·s | 0.699 mPa·s | –
x1 = 0.01508 | 1.127 mPa·s | 1.012 mPa·s | 0.919 mPa·s | 0.843 mPa·s | –
x1 = 0.0297 | 1.386 mPa·s | 1.236 mPa·s | 1.112 mPa·s | 1.002 mPa·s | –
x1 = 0.0568 | 1.979 mPa·s | 1.733 mPa·s | 1.538 mPa·s | 1.379 mPa·s | –
x1 = 0.08573 | 2.774 mPa·s | 2.371 mPa·s | 2.05 mPa·s | 1.791 mPa·s | –
x1 = 0.1227 | 3.836 mPa·s | 3.224 mPa·s | 2.741 mPa·s | 2.354 mPa·s | –
x1 = 0.1461 | 4.568 mPa·s | 3.799 mPa·s | 3.201 mPa·s | 2.728 mPa·s | –
x1 = 0.1745 | 5.342 mPa·s | 4.401 mPa·s | 3.676 mPa·s | 3.114 mPa·s | –
x1 = 0.2062 | 5.943 mPa·s | 4.87 mPa·s | 4.051 mPa·s | 3.414 mPa·s | –
x1 = 0.2453 | 6.471 mPa·s | 5.287 mPa·s | 4.386 mPa·s | 3.685 mPa·s | –
x1 = 0.2961 | 6.828 mPa·s | 5.569 mPa·s | 4.616 mPa·s | 3.878 mPa·s | –
x1 = 0.3486 | 6.796 mPa·s | 5.568 mPa·s | 4.626 mPa·s | 3.9 mPa·s | –
x1 = 0.3968 | 6.483 mPa·s | 5.332 mPa·s | 4.45 mPa·s | 3.744 mPa·s | –
x1 = 0.4616 | 6.161 mPa·s | 5.13 mPa·s | 4.326 mPa·s | 3.692 mPa·s | –
x1 = 0.5081 | 5.768 mPa·s | 4.838 mPa·s | 4.11 mPa·s | 3.531 mPa·s | –
x1 = 0.5809 | 5.129 mPa·s | 4.357 mPa·s | 3.75 mPa·s | 3.257 mPa·s | –
x1 = 0.6498 | 4.532 mPa·s | 3.892 mPa·s | 3.37 mPa·s | 2.946 mPa·s | –
x1 = 0.6917 | 4.245 mPa·s | 3.672 mPa·s | 3.202 mPa·s | 2.817 mPa·s | –
x1 = 0.797 | 3.571 mPa·s | 3.134 mPa·s | 2.772 mPa·s | 2.468 mPa·s | –
x1 = 0.8669 | 3.203 mPa·s | 2.837 mPa·s | 2.531 mPa·s | 2.274 mPa·s | –
x1 = 0.9357 | 2.957 mPa·s | 2.647 mPa·s | 2.384 mPa·s | 2.16 mPa·s | –
x1 = 0.9554 | 2.834 mPa·s | 2.533 mPa·s | 2.283 mPa·s | 2.071 mPa·s | –
x2 = 0.0016 | – | 2.348 mPa·s and 2.365 mPa·s | 2.126 mPa·s and 2.141 mPa·s | 1.937 mPa·s and 1.95 mPa·s | 1.777 mPa·s and 1.784 mPa·s
x2 = 0.0169 | – | 2.425 mPa·s | 2.191 mPa·s | 1.992 mPa·s | 1.819 mPa·s
